Assay results taken from article PMC5431883, “Enhancing Specific Disruption of Intracellular Protein Complexes by Hydrocarbon Stapled Peptides Using Lipid Based Delivery” (Scientific Reports, 2017).
“Also recorded” adds a separate entry of the source. Read-outs that look alike come from different tables or passages of the source. Positions of bridges follow the written chain, without caps; N, C: chain ends. Non-standard residues stand in square brackets, D forms with d. Residues, ends and D or L forms follow the SMILES beside them. R8 = C=CCCCCCC[C@@](C)(N)C(=O)O; S5 = C=CCCC[C@](C)(N)C(=O)O; Ahx = NCCCCCC(=O)O

Experiments:
T22 cells = experiment: Lactate dehydrogenase (LDH) release assay in T22 cells; assay type: cell-based, murine; details: for LDH Release (T22 Cells), 0% FCS (LDH50) / LDH Release (T22 Cells), 10% FCS (LDH50): 2 h treatment, normalised to 0.1% Triton X-100 lysis, 4 parameter fit to 10 point titration
Method: (§1) T22 cells or HEK 293 cells were seeded into a 96-well plate at a cell density of 5000 cells per well. Cells were maintained in Dulbecco’s Minimal Eagle Medium (DMEM) with 10% fetal bovine serum (FBS) and 1% (v/v) penicillin/streptomycin. The cells were incubated for 24 hours followed by cell media removal and addition of 90 µl of DMEM either with or without 10% FCS. Cells were then treated with compounds/peptide for 2 hours in DMEM with or without 10% FBS. Final working concentration of DMSO was 1% v/v. Corresponding negative control wells with 1% DMSO only were also prepared. Cytosolic lactate dehydrogenase release was detected using the cytoTox 96® non-radioactive cytotoxicity Assay kit (Promega) as per manufacturer’s instructions. Measurements were carried out using an Envision multiplate reader (Perkin-Elmer). Maximum LDH release was defined as the amount of LDH released when cells were lysed in the presence of 0.1% TRITON X-100 and was used to normalize the results.

Mdm2 (1-125) = target: T1, Mdm2 (1-125) (Homo sapiens, UniProt Q00987); experiment: Mdm2 competitive fluorescence anisotropy assay (FAM-labeled 12/1 peptide displacement); assay type: binding
T1 construct: Purified MDM2 (1-125) protein was titrated against 50 nM carboxyfluorescein (FAM)-labeled; GST (N, cleaved yes); made in house; host or cells: E. coli BL21 DE3 (pGEX-6P-1)

HEK293 cells = experiment: Lactate dehydrogenase (LDH) release assay in HEK293 cells; assay type: cell-based; details: 2 hour treatment, 12.5, 25 and 50 µM, normalised to 0.1% Triton X100 (Figure S1); for LDH release in HEK293 cells, absence of serum (in words): 0% FCS; for LDH release in HEK293 cells, high serum conditions (in words): 10% FCS
Method: as §1, with “results. […]” for “results.”
to induce LDH release in HEK293 cells after a 2 hour treatment period in A) the absence of FCS and B) the presence of 10% FCS. Compounds were tested at concentrations of 12.5 µM, 25 µM and 50 µM. Results were normalized to maximal LDH release as measured by treatment with 0.1% Triton X100.
(1 picture or pasted object on this page, not shown here)

T22 p53 reporter cells = experiment: p53 gene reporter assay (β-galactosidase) in T22 cells; assay type: cell-based, murine; details: 18 h, 1% DMSO, normalised to 25 µM Nutlin, 4 parameter fit to 10 point titration
Method: T22 cells, which were stably transfected with a p53 responsive β-galactosidase reporter, were seeded into a 96-well plate at a cell density of 8000 cells per well. Cells were also maintained in Dulbecco’s Minimal Eagle Medium (DMEM) with 10% fetal calf serum (FCS) and 1% (v/v) penicillin/streptomycin. The cells were incubated for 24 hours and followed by cell media removal and replacement with 90 µl of fresh DMEM either containing 10% FCS or 0% FCS. 10 µl of each compound was then added directly to each well and incubated for 18 hours. Final working concentration of DMSO was 1% v/v. […] Measurements were carried out using an Envision multiplate reader (Perkin-Elmer). […] This was then used to normalize the experimental results.
Mdm2:p53 complex = target: T2, Mdm2:p53 complex (Homo sapiens, UniProt Q00987); experiment: NanoBRET Mdm2:p53 live cell assay; assay type: cell-based; details: HEK293 cells, 0% FCS versus 10% FCS
T2 construct: host or cells: HEK293
Method: all competitive types of experiments, it is assumed that [P]t > [L]st, otherwise considerable amounts of free labeled ligand would always be present and would interfere with measurements. Kd1 is the […]
experimentally determined as described in the previous paragraph. The FAM-labeled peptide was dissolved in dimethyl sulfoxide (DMSO) at 1 mM and diluted into experimental buffer. Readings were carried out with an Envision Multilabel Reader (PerkinElmer). Experiments were carried out […]
Tween 20 buffer. All titrations were carried out in triplicate. Curve-fitting was carried out using […]
Negative control titrations of the ligands under investigation were also carried out with the fluorescently labeled peptide (in the absence of MDM2) to ensure no interactions were occurring between the ligands and FAM-labeled peptide. […]
which would otherwise indicate an unintended interaction between the ligand and the FAM-labeled peptide to be displaced from the MDM2 binding site.
Nanobret Mdm2:p53 Cell Based Assay
HEK293 cells were seeded at a cell density of 250,000 cells per well into a 6 well plate and incubated overnight at 37 °C and 5% CO2 in DMEM with 0.3 mg/ml glutamine, 100 IU/ml penicillin, 100 μg/ml streptomycin and 10% fetal calf serum. Each well was transfected with a […]

T1 sequence (Q00987 1-125): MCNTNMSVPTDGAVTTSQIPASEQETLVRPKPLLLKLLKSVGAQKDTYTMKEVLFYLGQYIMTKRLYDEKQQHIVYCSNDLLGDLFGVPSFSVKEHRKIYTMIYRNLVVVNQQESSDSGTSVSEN
T2 sequence (Q00987 whole entry, one chain of several): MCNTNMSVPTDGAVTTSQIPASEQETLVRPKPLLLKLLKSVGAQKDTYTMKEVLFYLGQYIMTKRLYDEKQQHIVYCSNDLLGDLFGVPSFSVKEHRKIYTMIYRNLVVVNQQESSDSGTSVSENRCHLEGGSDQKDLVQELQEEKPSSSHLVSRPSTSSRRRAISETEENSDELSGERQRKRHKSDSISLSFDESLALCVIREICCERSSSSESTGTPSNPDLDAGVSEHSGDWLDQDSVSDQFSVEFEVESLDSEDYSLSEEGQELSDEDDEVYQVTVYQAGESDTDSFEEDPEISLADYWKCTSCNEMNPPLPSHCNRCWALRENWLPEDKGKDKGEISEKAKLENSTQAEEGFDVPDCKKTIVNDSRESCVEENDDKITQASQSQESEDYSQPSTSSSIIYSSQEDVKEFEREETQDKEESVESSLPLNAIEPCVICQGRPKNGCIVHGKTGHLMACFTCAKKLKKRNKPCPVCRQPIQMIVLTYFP

| SMILES | LDH Release (T22 Cells), 0% FCS (LDH50) (T22 cells) | LDH Release (T22 Cells), 10% FCS (LDH50) (T22 cells) | improvement in affinity for Mdm2 over the library template sequence (sMTIDE-02) (Mdm2 (1-125)) | Kd (Mdm2 (1-125); competitive fluorescence anisotropy, text refers to Table S1, read-out: Kd for binding to Mdm2 (as quoted in the text from Table S1)) | LDH release in HEK293 cells, absence of serum (in words) (HEK293 cells) | LDH release in HEK293 cells, high serum conditions (in words) (HEK293 cells) | EC50 (T22 p53 reporter cells; 0% FCS, read-out: P53 Activation (T22 Cells), 0% FCS (p53ACT50 / EC50)) | EC50 (T22 p53 reporter cells; read-out: P53 Activation (T22 Cells), 10% FCS (p53ACT50 / EC50), 10% FCS) | improvement of NanoBRET IC50 in serum free conditions over high serum conditions (Mdm2:p53 complex) | cytotoxicity (LDH leakage) in the library screen, absence of serum (in words) (T22 cells; absence of serum, within 2 hours after treatment) | binding against Mdm2 in the FA competition assay (in words) (Mdm2 (1-125)) | P53 Activation (T22 Cells), 0% FCS (p53ACT50 / EC50) (T22 p53 reporter cells; 0% FCS) | P53 Activation (T22 Cells), 10% FCS (p53ACT50 / EC50) (T22 p53 reporter cells; 10% FCS) |
| --- | --- | --- | --- | --- | --- | --- | --- | --- | --- | --- | --- | --- | --- |
| CC(=O)N[C@@H](CCCCN)C(=O)N[C@@H](CCCCN)C(=O)NCCCCCC(=O)N[C@H](C(=O)N[C@@H](CO)C(=O)N[C@@H](Cc1ccccc1)C(=O)N[C@]1(C)CCCCCCC=CCCC[C@@](C)(C(=O)N[C@@H](CCC(=O)O)C(=O)N[C@@H](CC(N)=O)C(=O)N[C@@H](Cc2ccccc2)C(N)=O)NC(=O)[C@H](CC(C)C)NC(=O)[C@H](CC(C)C)NC(=O)[C@H](C)NC(=O)[C@H](Cc2c[nH]c3ccccc23)NC(=O)[C@H](Cc2ccc(O)cc2)NC(=O)[C@H](CCC(=O)O)NC1=O)[C@@H](C)O [VIP-82] (Ac-KK[Ahx]TSF[R8]EYWALL[S5]ENF-NH2; staple 7-14) | did not cause any measurable LDH release; also recorded: No release | No release | 2 fold | 24.4 ± 2.3 nM | remained inert | absence of LDH release | 800 ± 100 nM | 10000 ± 100 nM | 4.5 fold |  |  |  |  |
| CC(=O)N[C@H](C(=O)N[C@@H](CO)C(=O)N[C@@H](Cc1ccccc1)C(=O)N[C@]1(C)CCCCCCC=CCCC[C@@](C)(C(N)=O)NC(=O)[C@H](CC(C)C)NC(=O)[C@H](CC(C)C)NC(=O)[C@H](C)NC(=O)[C@H](Cc2c[nH]c3ccccc23)NC(=O)[C@H](Cc2ccc(O)cc2)NC(=O)[C@H](CCC(=O)O)NC1=O)[C@@H](C)O [sMTIDE-02] | 50.5 ± 1.7 µM | No release |  |  | induced significant amounts of LDH release | absence of LDH release |  |  | 9 fold | induced LDH leakage |  |  |  |
| CC(=O)N[C@H](C(=O)N[C@@H](CO)C(=O)N[C@@H](CC(C)C)C(=O)N[C@]1(C)CCCCCCC=CCCC[C@@](C)(C(N)=O)NC(=O)[C@H](Cc2c[nH]c3ccccc23)NC(=O)[C@H](CC(C)C)NC(=O)[C@H](C)NC(=O)[C@H](Cc2ccccc2)NC(=O)[C@H](Cc2ccc(O)cc2)NC(=O)[C@H](CCC(=O)O)NC1=O)[C@@H](C)O [sMTIDE-02^SCRAM] (Ac-TSL[R8]EYFALW[S5]-NH2; staple 4-11) | 25.1 ± 2.8 µM | 105 ± 8.0 µM |  |  | induced significant amounts of LDH release |  |  |  |  |  | no binding | No Activity | No Activity |
